Assay results taken from patent publication US20100221274A1, “METHOD OF ADMINISTERING A THYMOSIN ALPHA 1 PEPTIDE” (SCICLONE PHARMACEUTICALS, INC., priority 2001, published 2010).
Peptide text beside a SMILES is read from it.

What was measured:
[1] = test system: activated lymphocytes (CD3+CD25+); experiment: activated lymphocytes (CD25+CD3+ by flow cytometry) in 5-FU immune-suppressed rats, Example 1; format: in vivo
Experimental: (§1) In the following examples, which are not intended to be limiting, a continuous infusion of TA1 (N-acetyl-[…]OH) (SEQ ID NO:1) was evaluated in a cancer therapy model with the use of surgically implanted osmotic minipumps, which deliver fluids at a constant flow rate for 5 days. Rats were given 5-fluorouracil (5-FU) to cause immune suppression, and then treated with injected or infused TA1 8 days later (the nadir of white cell count after 5-FU). Treatment groups, 8 rats each, were: control (minipumps with saline); low dose TA1 (0.2 mg/Kg sc injection; empty minipumps); high dose TA1 (3.5 mg/Kg sc injection; empty minipumps); and high dose infused TA1 (3.5 mg/Kg infused by minipumps). Immune parameters were determined at baseline and 8 days after 5-FU treatment (day 1 of TA1 treatment), and also at 5, 12, 20, and 27 days after TA1 treatment.
(§2) 10 week old rats, weighing 250-300 g, received 100 mg/kg 5-fluorouracil (5-FU) for immune suppression.
(§3) 8 days after 5-FU treatment, rats were randomly assigned to one of the following groups (n=8): • Control (saline in minipump) • Low dose TA1, injected s.c. at 0.2 mg/Kg (with empty minipumps) • High dose TA1, injected s.c. at 3.5 mg/Kg (with empty minipumps) • Continuous infusion TA1, provided by minipump at 3.5 mg/Kg/5 days
(§4) Immune parameters were determined at baseline and 8 days after 5-FU treatment (day 1 of TA1 treatment), and also at 5, 12, 20, and 27 days after TA1 treatment.
(§5) The evaluations included NK activity (LDH released from YAC-1 cells after 4 h exposure to PBMC), total leukocyte number (judged by physical cytofluorimetric parameters, after verifying the specificity by monoclonal antibody), total lymphocyte number (CD3+ by flow cytometry), and activated lymphocytes (CD25+CD3+ by flow cytometry).

NK activity = NK activity (LDH released from YAC-1 cells after 4 h exposure to PBMC) in 5-FU immune-suppressed rats, Example 1; format: in vivo; settings: for NK activity: 5 days after TA1 treatment
Experimental: as §1, §2, §3, §4, §5

granulocytes = granulocytes (flow cytometry, HIS-48) in 5-FU immune-suppressed rats, Example 2; format: in vivo
Experimental: (§6) 10 week old rats, weighing 250-300 g, received […] 5-FU for immune suppression.
(§7) 8 days after 5-FU treatment, rats were randomly assigned to one of the following groups (n=15): • Control (saline in minipump) • High dose TA1, injected s.c. at 3.5 mg/Kg (with empty minipumps) • Continuous infusion TA1, provided by minipump at 3.5 mg/Kg/5 days
(§8) Immune parameters were determined at baseline and 8 days after 5-FU treatment (day 1 of TA1 treatment), and also at 5 and 14 days after TA1 treatment.
(§9) The evaluations included total leukocyte number (judged by physical cytofluorimetric parameters, after verifying the specificity by monoclonal antibody), granulocytes (flow cytometry using FITC anti rat granulocyte HIS-48), total lymphocyte number (CD3+ by flow cytometry), T helper lymphocytes (CD4+ by flow cytometry), activated lymphocytes (CD25+CD3+ by flow cytometry), and cytokine expression in plasma (IL-2 and IFN-γ by ELISA).

[2] = test system: T helper lymphocytes (CD3+CD4+); experiment: T helper lymphocytes (CD4+ by flow cytometry) in 5-FU immune-suppressed rats, Example 2; format: in vivo
Experimental: as §6, §7, §8, §9

IFN-γ = experiment: cytokine expression in plasma by ELISA: IFN-γ, Example 2; format: in vivo, rats
Experimental: as §6, §7, §8, §9

IL-2 = experiment: cytokine expression in plasma by ELISA: IL-2, Example 2; format: in vivo, rats; settings: for plasma level of IL-2: 14 days after TA1
Experimental: as §6, §7, §8, §9

[3] = observation of adverse events in treated rats; format: in vivo
Experimental: as §7

total lymphocytes (CD3+) = experiment: total lymphocyte number (CD3+ by flow cytometry) in 5-FU immune-suppressed rats, Example 2; format: in vivo
Experimental: as §6, §7, §8, §9

[4] = test system: activated lymphocytes (CD25+CD3+); experiment: activated lymphocytes (CD25+CD3+ by flow cytometry) in 5-FU immune-suppressed rats, Example 2; format: in vivo
Experimental: as §6, §7, §8, §9

total leukocyte number = experiment: total white blood cell count in 5-FU immune-suppressed rats, Example 1; format: in vivo
Experimental: as §1, §2, §3, §4, §5

[5] = continuous infusion by minipump 3.5 mg/Kg/5 days
[6] = high dose injected s.c. 3.5 mg/Kg
[7] = low dose injected s.c. 0.2 mg/Kg
[8] = continuous infusion 3.5 mg/Kg/5 days
[9] = one animal, high dose injection followed by infusion

## CC[C@H](C)[C@H](NC(=O)[C@H](CCC(=O)O)NC(=O)[C@H](CO)NC(=O)[C@H](CO)NC(=O)[C@@H](NC(=O)[C@H](CC(=O)O)NC(=O)[C@@H](NC(=O)[C@H](C)NC(=O)[C@H](C)NC(=O)[C@H](CC(=O)O)NC(=O)[C@H](CO)NC(C)=O)C(C)C)[C@@H](C)O)C(=O)N[C@H](C(=O)N[C@H](C(=O)N[C@@H](CCCCN)C(=O)N[C@@H](CC(=O)O)C(=O)N[C@@H](CC(C)C)C(=O)N[C@@H](CCCCN)C(=O)N[C@@H](CCC(=O)O)C(=O)N[C@@H](CCCCN)C(=O)N[C@@H](CCCCN)C(=O)N[C@@H](CCC(=O)O)C(=O)N[C@H](C(=O)N[C@H](C(=O)N[C@@H](CCC(=O)O)C(=O)N[C@@H](CCC(=O)O)C(=O)N[C@@H](C)C(=O)N[C@@H](CCC(=O)O)C(=O)N[C@@H](CC(N)=O)C(=O)O)C(C)C)C(C)C)[C@@H](C)O)[C@@H](C)O [TA1] (Ac-SDAAVDTSSEITTKDLKEKKEVVEEAEN-OH)
[1]; continuous infusion 3.5 mg/Kg/5 days, 12 days after TA1 treatment
  activated lymphocytes (CD3+CD25+): 422±105 cells/mm^3
[1]; continuous infusion 3.5 mg/Kg/5 days, 20 days after TA1 treatment
  activated lymphocytes (CD3+CD25+): 446±73 cells/mm^3
[1]; high dose injected 3.5 mg/Kg, 12 days after TA1 treatment
  activated lymphocytes (CD3+CD25+): 297±136 cells/mm^3
[1]; high dose injected 3.5 mg/Kg, 20 days after TA1 treatment
  activated lymphocytes (CD3+CD25+): 321±75 cells/mm^3
NK activity; [5]
  recovery of NK activity: complete recovery of NK activity to baseline levels
NK activity; continuous infusion by minipump 3.5 mg/Kg/5 days, baseline 42±5%
  NK activity: 32±4%
NK activity; [6]
  time to significant recovery of NK activity: 5 days
  NK activity: 16±2%
NK activity; [7]
  time to significant recovery of NK activity: 12 days
  NK activity: 12±3%
granulocytes; TA1 by s.c. injection 3.5 mg/Kg, 5 days
  number of granulocytes: 9,924±3,218 cells/mm^3
granulocytes; continuous infusion 3.5 mg/Kg/5 days, 5 days
  number of granulocytes: 14,652±2,463 cells/mm^3
granulocytes; continuous infusion 3.5 mg/Kg/5 days, after 14 days
  number of granulocytes relative to other groups: still the highest
granulocytes; one animal, both injection (3.5 mg/Kg) and continuous infusion (another 3.5 mg/Kg), after 5 days
  number of granulocytes: 19,376 cells/mm^3
[2]; TA1 by either delivery method (injection or continuous infusion, 3.5 mg/Kg)
  recovery of T helper cell levels: sufficient to return the levels of T helper cells to baseline
IFN-γ; TA1 by injection 3.5 mg/Kg s.c., 14 days after treatment
  plasma level of IFN-γ: 10 ± 1 pg/mL
IFN-γ; continuous infusion 3.5 mg/Kg/5 days, 14 days after treatment
  plasma level of IFN-γ: 14 ± 5 pg/mL
IFN-γ; one animal, both injection and continuous infusion, after 14 days
  plasma level of IFN-γ: 45 pg/mL
IFN-γ; s.c. injected TA1 3.5 mg/Kg, 5 days after treatment
  plasma level of IFN-γ relative to other groups: higher plasma levels of IFN-γ
IL-2; [8]
  plasma level of IL-2: 42 ± 7 pg/mL
IL-2; injected TA1 3.5 mg/Kg s.c.
  plasma level of IL-2: 21 ± 16 pg/mL
IL-2; one animal, both injection and continuous infusion
  plasma level of IL-2 relative to other animals: even greater levels of both of the Th1 cytokines measured
[3]; doses of TA1 15 times higher than usual (one animal 30 times higher than usual)
  adverse events: No adverse events were observed
[3]; one animal, both injection (3.5 mg/Kg) and continuous infusion (another 3.5 mg/Kg)
  adverse events / condition of the animal: healthy and vigorous, with no obvious adverse events
Total lymphocytes (CD3+); [8]
  time to recovery of total lymphocytes (CD3+) to baseline levels: 5 days
Total lymphocytes (CD3+); continuous infusion 3.5 mg/Kg/5 days, mean of other animals
  levels of lymphocytes: 9,644±961 cells/mm^3
Total lymphocytes (CD3+); injected TA1 3.5 mg/Kg s.c.
  time to recovery of total lymphocytes (CD3+) to baseline levels: 14 days
Total lymphocytes (CD3+); one animal, both injection and continuous infusion (3.5 mg/Kg each)
  levels of lymphocytes: 9,765 cells/mm^3
[4]; [8]
  activated lymphocytes: 428±89 cells/mm^3
  percentage of lymphocytes which were activated: 4 % of lymphocytes
[4]; [9]
  activated lymphocytes: 976 cells/mm^3
  percentage of lymphocytes which were activated: 10 % of lymphocytes
Total leukocyte number; [5]
  recovery of total white blood cell count: statistically significant and complete recovery to baseline levels after only 5 days
Total leukocyte number; low or high dose TA1 by s.c. injection (0.2 or 3.5 mg/Kg)
  recovery of total white blood cell count: trended towards a sooner increase in recovery compared to untreated animals

## O=c1[nH]cc(F)c(=O)[nH]1 [5-FU, 5-fluorouracil]
[1]; 8 days after 100 mg/kg 5-FU, baseline 65±21
  activated lymphocytes (CD3+CD25+) after 5-FU: 37±10 cells/mm^3
NK activity; 8 days after 100 mg/kg 5-FU, baseline 42±5%
  NK activity after 5-FU: 9±2%
granulocytes; 8 days after 100 μg/kg 5-FU, baseline 4,485±1,116
  number of granulocytes after 5-FU: 1,249±432 cells/mm^3
[2]; 8 days after 100 μg/kg 5-FU, baseline 5,411±1,084
  T helper lymphocytes (CD3+CD4+) after 5-FU: 1,710±449 cells/mm^3
Total lymphocytes (CD3+); 8 days after 100 μg/kg 5-FU, baseline 10,904±1,973
  total lymphocytes (CD3+) after 5-FU: 1,740±560 cells/mm^3
Total leukocyte number; 8 days after 100 mg/kg 5-FU, baseline 14,590±2,071
  total white blood cell count after 5-FU: 2,597±582 cells/mm^3
